Data on twelve compounds can be found in article PMC10502087, “Fatty acid binding proteins are novel modulators of synaptic epoxyeicosatrienoic acid signaling in the brain” (Scientific Reports, 2023).

Where two headings read alike, the source gives them in different places. Bounds are passed on as bounds.

Test [1] has as its target T1, FABP7 (Homo sapiens, UniProt O15540). Description: Fluorescent probe (ANS) displacement from purified FABP7. Format: binding. The source says: (§1) We first examined the binding of EETs (Fig. 1) to purified FABP3, FABP5, and FABP7 via fluorescent probe displacement assays as previously described[30],[31]. 5,6-EET, 8,9-EET, 11,12-EET, and 14,15-EET bound to all three FABPs with distinct selectivity. […] Similarly, 11,12-EET emerged as the preferred ligand for FABP5 followed by 8,9-EET, 5,6-EET, and 14,15-EET (Fig. 2A, Table 1). For FABP7, 11,12-EET bound with highest affinity while interactions of the remaining EETs were considerably weaker.
(§2) Affinities of each ligand were determined via fluorescent probe displacement from purified FABPs as previously described[30],[31],[47]. Ligands were incubated in assay buffer (30 mM Tris, 100 mM NaCl, pH 7.5) containing 3 μM purified FABPs, 500 nM DAUDA (for FABP3 and FABP5) or ANS (for FABP7). AA (10 μM) was included to account for maximal probe displacement. The fluorescence signal was quantified on a F5 Filtermax Multi-Mode Microplate Reader (Molecular Devices) with the excitation and emission wavelengths set at 360/535 nm for DAUDA and 360/465 nm for ANS. After background subtraction, normalized fluorescence values were fit to a one-site binding model using GraphPad Prism (v 9.5) and Ki values were determined using the following equation: Ki = IC50/(1 + ([Probe]/Kd).

For test [2], the target named is T2, FABP5 (Homo sapiens, UniProt Q01469). Briefly: Fluorescent probe (DAUDA) displacement from purified FABP5. Format: binding. On the procedure: We first examined the binding of EETs (Fig. 1) to purified FABP3, FABP5, and FABP7 via fluorescent probe displacement assays as previously described[30],[31].
T2 sequence (Q01469 whole entry): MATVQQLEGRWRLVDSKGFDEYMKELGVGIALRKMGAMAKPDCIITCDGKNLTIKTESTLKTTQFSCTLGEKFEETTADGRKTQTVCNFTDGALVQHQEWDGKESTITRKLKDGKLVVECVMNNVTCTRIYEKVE
Affinities of each ligand were determined via fluorescent probe displacement from purified FABPs as previously described[30],[31],[47]. Ligands were incubated in assay buffer (30 mM Tris, 100 mM NaCl, pH 7.5) containing 3 μM purified FABPs, 500 nM DAUDA (for FABP3 and FABP5) or ANS (for FABP7). AA (10 μM) was included to account for maximal probe displacement.

For the next test, the target named is FABP3 (Homo sapiens, UniProt P05413). Description: Fluorescent probe (DAUDA) displacement from purified FABP3. Format: binding.
FABP3, sequence (P05413 whole entry): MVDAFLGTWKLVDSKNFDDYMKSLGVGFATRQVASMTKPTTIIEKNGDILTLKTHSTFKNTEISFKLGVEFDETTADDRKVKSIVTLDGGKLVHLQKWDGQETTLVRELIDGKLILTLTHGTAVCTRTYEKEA
Description: as §1, §2

For test [3], the system named is CA1 pyramidal neuron glutamate synapses. More on the design: method as in PMID 28526610, PMID 29138698. Conditions: previous studies; cited from earlier work.
Test [4] deals with T1, FABP7. More on the design: method as in PMID 8798739, PMID 8608126. Particulars: cited from earlier work.
Test [5] deals with T2, FABP5. More on the design: method as in PMID 8798739, PMID 8608126. Conditions: cited from earlier work.
Test [6] deals with CA1 pyramidal neuron glutamate synapses. Description: Ex vivo whole-cell recordings of evoked EPSCs in hippocampal slices. Format: cell-based, C57Bl/6 mice. On the procedure: Mice were deeply anesthetized with isoflurane and decapitated. Coronal brain slices (350 μm thick) containing the hippocampus were cut using a vibratome Leica VT 1200 (Leica, CA) in a modified ice-cold […] artificial cerebrospinal fluid (ACSF) composed in mM: 110 mM choline-Cl, 2.5 mM KCl, 0.5 mM CaCl2, 7 mM MgSO4, 1.25 mM NaH2PO4, 26.2 mM NaHCO3, 11.6 mM sodium L-ascorbate, 3.1 mM sodium pyruvate, and 25 mM glucose, and equilibrated with 95% O2 and 5% CO2. Hippocampal slices were first transferred to a chamber with the same cutting solution at 35 °C for 15 min and then to a standard ACSF in mM: 119 mM NaCl, 2.5 mM CaCl2, 1.3 mM MgSO4, 1 mM NaH2PO4, 26.2 mM NaHCO3, and 11 mM glucose continuously bubbled with a mixture of 95% O2 and 5% CO2 for additional 45 min at 35 °C. Slices were allowed to recover at room temperature (≥ 1 h). After recovery, individual slice was transferred to a recording chamber, continuously perfused with standard ACSF containing 0.01% DMSO saturated with 95% O2 and 5% CO2, and warmed at 30 °C.
Hippocampal CA1 pyramidal neurons were visualized using an upright microscope (BX 51 WI; Olympus, Tokyo, Japan) and somatic whole-cell recordings were obtained from pyramidal neurons using glass pipette electrodes with 3–5 MΩ resistance when filled with an internal solution containing: 120 mM potassium gluconate, 10 mM KCl, 10 mM Na2-phosphocreatine, 10 mM HEPES, 1 mM MgCl2, 1 mM EGTA, 2 mM Na2-ATP, 0.25 mM Na-GTP (pH 7.3 adjusted with KOH; osmolarity, 280–290 mOsmol/l). All recordings were performed in the presence of the GABA A receptor antagonist picrotoxin (100 μM). Excitatory postsynaptic currents (EPSCs) were evoked with electrical pulses (5–20 V, 100–200 μs) delivered at 0.1 Hz using glass microelectrode placed in the […] in CA1 pyramidal neurons voltage-clamped at − 70 mV. All recorded currents were amplified with an a Multiclamp 700B amplifier (Molecular Devices, Sunnyvale, CA), filtered at 3 kHz, digitized at 20 kHz with Digidata 1200 (Molecular Devices), and acquired using the pClamp 10.7 software (Molecular Devices, Sunnyvale, CA). To examine the impact of TPPU on the amplitude of evoked EPSCs, at least 10–20 min of stable baseline recordings were obtained and TPPU was perfused to the brain slices (final DMSO concentration of 0.01%).
For the analysis of the electrophysiology data, the amplitude of evoked EPSCs (eEPSC) was determined by measuring the average current during a 2-ms period at the peak of each eEPSC and subtracted from the average baseline current determined during a 5-ms window taken before the stimulus artifact. All eEPSC amplitudes were normalized to the mean baseline amplitude recorded for at least 10 min before drug application. All the data are represented as the mean ± SE and were not transformed.

The mark [7] stands for this setting: mean ± S.E., n = 4, Table 1, read-out: Ki FABP5.

T1 sequence (O15540 whole entry): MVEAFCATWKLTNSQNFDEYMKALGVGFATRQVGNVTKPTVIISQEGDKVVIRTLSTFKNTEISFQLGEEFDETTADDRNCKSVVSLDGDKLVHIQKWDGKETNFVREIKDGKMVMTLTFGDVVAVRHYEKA

The Ki is the dissociation constant of the complex between target and ligand, obtained from inhibition or displacement. Regarding `CCCCC/C=C\C/C=C\C/C=C\C[C@H]1O[C@H]1CCCC(=O)O` [5,6-EET], the Ki at FABP7 [1] (mean ± S.E., n = 4, Table 1) is 4.3 ± 0.29 µM; on FABP5 [2] (setting [7]), 3.57 ± 0.28 µM; on FABP3 (mean ± S.E., n = 4, Table 1), 1.44 ± 0.12 µM.

Consider `CCCCC/C=C\C/C=C\C[C@H]1O[C@H]1C/C=C\CCCC(=O)O` [8,9-EET], for which the Ki at FABP7 [1] (mean ± S.E., n = 4, Table 1) worked out at 3.16 ± 0.3 µM; on FABP5 [2] (setting [7]) it was 1.87 ± 0.21 µM; at FABP3 (mean ± S.E., n = 4, Table 1) it was 0.17 ± 0.02 µM.

Turning to `CCCCC/C=C\C[C@H]1O[C@H]1C/C=C\C/C=C\CCCC(=O)O` [11,12-EET], the Ki at FABP7 [1] (mean ± S.E., n = 4, Table 1) is 1.13 ± 0.11 µM; at FABP5 [2] (setting [7]), 0.52 ± 0.07 µM; on FABP3 (mean ± S.E., n = 4, Table 1), 0.2 ± 0.03 µM. Besides, in test [3], the “Effect on hippocampal glutamate synapses” value was “depresses”.

With `CCCCC[C@H]1O[C@H]1C/C=C\C/C=C\C/C=C\CCCC(=O)O` [14,15-EET], the Ki amounted to 3.74 ± 0.12 µM at FABP7 [1] (mean ± S.E., n = 4, Table 1); 5.56 ± 0.48 µM on FABP5 [2] (setting [7]); 0.65 ± 0.08 µM at FABP3 (mean ± S.E., n = 4, Table 1). Further, the “Effect on hippocampal glutamate synapses” value in test [3] is “potentiates”.

Turning to `CCCCCC=CC=C1C(=O)C=CC1CC=CCCCC(=O)O` (stereo not shown) [15d-PGJ2, 15-deoxy-Δ^12,14-Prostaglandin J2], the inhibitory constant (Ki) at FABP7 [1] (mean ± S.E., n = 4, Table 1) turned out to be 29.9 ± 5.64 µM; at FABP5 [2], 12.3 ± 1.54 µM; on FABP3 (mean ± S.E., n = 4, Table 1) it was 1.22 ± 0.14 µM.

For `CCCCCCCC/C=C\CCCCCCCC(=O)OC[C@H](O)COP(=O)(O)O` [LPA, oleoyl lysophosphatidic acid], the Ki was above 50 µM at FABP7 [1] (mean ± S.E., n = 4, Table 1); 3.2 ± 0.19 µM at FABP5 [2] (setting [7]); 1.37 ± 0.12 µM at FABP3 (mean ± S.E., n = 4, Table 1).

For `CCCCC[C@H](O)/C=C/[C@H]1[C@H](O)CC(=O)[C@@H]1C/C=C\CCCC(=O)O` [PGE2, prostaglandin E2], the Ki at FABP7 [1] (mean ± S.E., n = 4, Table 1) is above 50 µM; at FABP5 [2] (setting [7]), above 50 µM; on FABP3 (mean ± S.E., n = 4, Table 1), above 50 µM. Moreover, at FABP7 [4], the “Affinity for FABP7” value was “does not display appreciable affinity”. For the same compound, the “Affinity for FABP5” value at FABP5 [5] is given as “does not display appreciable affinity”.

Consider `CCCCCC(O)C=CC1C(O)CC(=O)C1CC=CCCCC(=O)OCC(O)CO` (stereo not shown) [PGE2-GE, prostaglandin E2 glyceryl ester], for which the Ki at FABP7 [1] (mean ± S.E., n = 4, Table 1) is above 50 µM; on FABP5 [2] (setting [7]) it was above 50 µM; at FABP3 (mean ± S.E., n = 4, Table 1) it was above 50 µM.

On to `CCCCCC(O)C=CC1C(O)CC(O)C1CC=CCCCC(=O)NCCO` (stereo not drawn) [PGF2α-EA, prostamide F2α], for which the Ki at FABP7 [1] (mean ± S.E., n = 4, Table 1) is above 50 µM; on FABP5 [2] (setting [7]), above 50 µM; at FABP3 (mean ± S.E., n = 4, Table 1), above 50 µM.

Consider `CCCCC[C@H](O)/C=C/[C@@H]1[C@@H](C/C=C\CCCC(=O)O)[C@@H](O)C[C@H]1O` [PGF2α], for which the Ki was above 50 µM on FABP7 [1] (mean ± S.E., n = 4, Table 1); above 50 µM on FABP5 [2] (setting [7]); above 50 µM at FABP3 (mean ± S.E., n = 4, Table 1).

As for `O=C(O)C1[C@H](c2ccccc2)C(C(=O)Oc2cccc3ccccc23)[C@H]1c1ccccc1` (stereo partly shown) [SBFI-26], the Ki on FABP7 [1] (inhibitors, Table 3) stood at 0.45 ± 0.07 µM; at FABP3 (inhibitors, Table 3) it was 2.7 ± 0.42 µM. In addition, the “Effect on TPPU-induced potentiation of eEPSCs” value in test [6] (inhibitor 10 µM with TPPU 10 µM, hippocampal slices) was “significantly reduced”.

For `CCC(=O)N1CCC(NC(=O)Nc2ccc(OC(F)(F)F)cc2)CC1` [TPPU], in test [6] (TPPU 10 µM), the “CA1 pyramidal neurons showing depression of eEPSC amplitude” value is 41% and the “CA1 pyramidal neurons showing potentiation of eEPSC amplitude” value turned out to be 47%. Moreover, the “Coefficient of variation (CV) during depression of EPSCs” value in test [6] (TPPU 10 µM vs baseline, n = 5, p = 0.086) is given as “not accompanied with significant changes”. Moreover, the “Paired pulse ratio (PPR) during depression of EPSCs” value in test [6] (TPPU 10 µM vs baseline, n = 5, p = 0.108) was “not accompanied with significant changes”. For the same compound, the “Coefficient of variation (CV) during potentiation of eEPSCs” value in test [6] (TPPU 10 µM vs baseline, n = 7, p = 0.0017) is listed as “significant decrease”. Also, in test [6] (TPPU 10 µM vs baseline, n = 7, p = 0.042), the “Paired pulse ratio (PPR) during potentiation of eEPSCs” value is reported as “significant decrease”.
